Reference: PubChem BioAssay (NCI)
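Five compound concentrations were applied to cells in 96-well plates for 48 hours; endpoints were derived by simple linear interpolation of the resulting dose-response curve. At the TGI there is no net growth.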

Experiments:
Experiment in all cases: NCI-60 cell line screen, 48 h
[1] = tested on: ACHN renal
[2] = tested on: HOP-62 NSCLC
[3] = tested on: EKVX NSCLC
[4] = tested on: 786-0 renal
[5] = tested on: U251 CNS
[6] = tested on: PC-3 prostate
[7] = tested on: UO-31 renal
[8] = tested on: NCI-H23 lung
[9] = tested on: IGROV1 ovarian
[10] = tested on: SK-OV-3 ovarian
[11] = tested on: SR leukemia
[12] = tested on: COLO 205 colon
[13] = tested on: SF-268 CNS
[14] = tested on: SF-295 CNS
[15] = tested on: A549 NSCLC
[16] = tested on: A498 renal
[17] = tested on: BT-549 breast
[18] = tested on: M14 melanoma
[19] = tested on: SK-MEL-2 melanoma

Row | Compound | TGI [1] | TGI [2] | TGI [3] | TGI [4] | TGI [5] | TGI [6] | TGI [7] | TGI [8] | TGI [9] | TGI [10] | TGI [11] | TGI [12] | TGI [13] | TGI [14] | TGI [15] | TGI [16] | TGI [17] | TGI [18] | TGI [19]
1 | Brc1ccccc1/C=C\C1(c2ccccc2)OCCO1 | 21.3 µM | 27.7 µM | 30.6 µM | 24.3 µM | 18.4 µM | 34.1 µM | 20 µM | 20.5 µM | 29.3 µM | 26.5 µM | 8.33 µM | 37.7 µM | 16 µM | 26.4 µM | 32.8 µM | 25.9 µM | 39 µM | 25.6 µM | 44.7 µM
2 | CN(C)CCSC(=Nc1ccccc1)N1C=COC=C1 | > 100 µM | > 100 µM | > 100 µM | 38.9 µM | > 100 µM | 95.5 µM | > 100 µM | > 73.6 µM | 33.4 µM | > 100 µM | > 100 µM | > 72.2 µM | 42.5 µM | > 100 µM | > 100 µM | > 100 µM | > 100 µM | 36.2 µM | 32.1 µM
3 | C[C@@H]1CCC2[C@@H](C)[C@H](O[C@H]3O[C@@H]4O[C@@]5(C)CCC6[C@H](C)CCC([C@H]3C)[C@]64OO5)O[C@@H]3O[C@@]4(C)CCC1[C@@]23OO4 (stereo partly drawn) | 14.2 µM | 25.5 µM | 18.7 µM | 18 µM | 23.8 µM | 12.5 µM | 11 µM | 13.3 µM | 18.4 µM | 41.7 µM | 1.28 µM | 0.326 µM | 23.8 µM | 18.8 µM | 32.3 µM | 9.51 µM | 14.7 µM | 20.6 µM | 9.69 µM
4 | CC1=NN(c2nc(N)nc(C(C)Sc3cc(Cl)c(C)cc3S(N)(=O)=O)n2)C(C)(C)C1 (stereo not drawn) | > 10 µM | > 10 µM | > 10 µM | > 10 µM | > 10 µM | > 10 µM | > 10 µM | > 10 µM | > 10 µM | > 10 µM | > 10 µM | > 10 µM | > 10 µM | > 10 µM | > 10 µM | > 10 µM | > 10 µM | > 10 µM | > 10 µM
5 | COC(=O)c1ccccc1/C=C1\Cc2cc3c(cc2C1=O)CCC3 | > 100 µM | > 100 µM | > 100 µM | > 100 µM | > 100 µM | > 100 µM | > 100 µM | > 100 µM | > 100 µM | > 100 µM | > 100 µM | > 100 µM | > 100 µM | > 100 µM | > 100 µM | > 100 µM | > 100 µM | > 100 µM | > 100 µM
6 | CC1=NN(C(=O)CC(=O)Nc2ccccc2C)C(=O)C1N=Nc1ccc(S(=O)(=O)c2ccc(N=NC3C(=O)N(C(=O)CC(=O)Nc4ccccc4C)N=C3C)cc2)cc1 (stereo not drawn) | > 100 µM | > 100 µM | > 100 µM | > 100 µM | > 100 µM | > 100 µM | > 100 µM | > 100 µM | > 100 µM | > 100 µM | > 100 µM | > 100 µM | > 100 µM | > 100 µM | > 100 µM | > 100 µM | > 100 µM | > 100 µM | > 100 µM
7 | CC(C)(C)c1ccc(-c2nc3ccccc3c(=O)o2)cc1 | > 100 µM | > 100 µM | > 100 µM | > 100 µM | > 100 µM | > 100 µM | > 100 µM | > 100 µM | > 100 µM | > 100 µM | 54.2 µM | 78.7 µM | > 100 µM | > 100 µM | 86.6 µM | > 100 µM | 91 µM | > 100 µM | 66.6 µM
